Assay: Solubility of the catalyst
Format: physicochemical
Settings: ambient temperature (25° C.)

With CC(C)C/C(=C/C(=O)C(C)(C)C)[O][Zn][O]/C(=C\C(=O)C(C)(C)C)CC(C)C [Catalyst (6), zinc bis(2,2,7-trimethyl-3,5-octanedionate)] the solubility was “soluble in organic solvents, even in alkanes, and in silicone oils”.

— patent US20110305911A1, “ARTICLE HAVING ANTIFOULING PROPERTIES AND INTENDED TO BE USED IN AQUATIC APPLICATIONS, PARTICULARLY MARINE APPLICATIONS” (BLUESTAR SILICONES FRANCE, priority 2008, published 2011)
